From patent publication US11149248B2, “Bioreactor system” (KIYATEC INC., priority 2013, dated 2021)

Key:
[1] = tested on: Human mammary epithelial cells (hMEC); assay: PrestoBlue cell viability analysis in 2D, 3D static and 3D perfusion culture; assay type: cell-based; settings: hMEC cultured over 7 days with increasing concentrations of cisplatin, 3D static, 3D perfusion (FIG. 16)
Procedure: (§1) The experiment was performed in a single chamber culture system (one chamber of a 3DKUBE in an “independent chamber” configuration) or using wells in a 12-well plate. […] The inlet port was connected to an opening in a first side of the 3DKUBE cell module and the outlet port connected to an opening in a second side of the cell module. The chamber featured an imaging widow enabling non-lytic analysis inside the chamber through various spectrophotometric and other techniques.
(§2) Human mammary epithelial cells (hMEC) were utilized. For 2D experiments hMEC were cultured on the bottom of 12-well plates as per typical cell culture practices (referred to as “2D” experiments). For 3D static and perfusion experiments hMEC were suspended in a Matrigel™:Collagen (rat tail collagen Type I) mixture which was added to silk fibroin scaffolds (H 2.5 mm×W 5 mm) contained in 12-well plates (referred to as “3D static”) or 3DKUBEs (referred to as “3D perfusion”). […]
(§3) The secretion of lactate dehydrogenase (LDH) is a non-lytic assay of cytotoxicity. […] The cells were cultured in these 2D, 3D static, or 3D perfusion configurations over 7 days in media alone or in media with increasing concentrations of cisplatin (a DNA alkylating agent used in chemotherapy) and analyzed via PrestoBlue or LDH release (examples of non-lytic means of assessing cell viability or cytotoxicity). […]

[2] = tested on: Human mammary epithelial cells (hMEC); assay: LDH release cytotoxicity assay in 2D, 3D static and 3D perfusion culture; assay type: cell-based; settings: 2% triton 2 hours prior to analysis, positive control
Procedure: as §1, §2, §3

Compound	cell viability (PrestoBlue analysis) [1]	maximal cell lysis (LDH release) ([2]; 2D and 3D static (12-well plates))	increase of LDH release ([2]; 3D perfusion (3DKUBE))
N.N.[Cl][Pt][Cl] [cisplatin]	decrease in cell viability that is only statistically significant in 3D static and 3D perfusion	–	–
triton	–	reduced maximal cell lysis	approximately 2.5 fold
